Source: ChEMBL document CHEMBL1201862, “PubChem BioAssay data set” (2004)
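Dose response: 5 concentrations. Exposure: 48 h. Format: 96-well plates. Endpoint: linear interpolation; highest concentration if not reached. Abbreviation: GI50, concentration required for 50% inhibition of growth.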 Active and inactive are the calls of the source. Rule as the data show it: active = GI50 up to about 1.1 µM and inactive = higher.

Key:
Test in all cases: NCI-60 cell line screen, 48 h
[1] = test system: CAKI-1
[2] = test system: HCT-15
[3] = test system: HL-60
[4] = test system: HOP-62
[5] = test system: HT-29
[6] = test system: KM12
[7] = test system: LOX IMVI
[8] = test system: LXFL 529
[9] = test system: MOLT-4
[10] = test system: NCI-H23
[11] = test system: NCI-H522
[12] = test system: OVCAR-4
[13] = test system: OVCAR-8
[14] = test system: SF-268
[15] = test system: SF-295
[16] = test system: SNB-19
[17] = test system: SR
[18] = test system: UACC-257

Row | Structure (SMILES) | GI50 [1] | GI50 [2] [µM] | GI50 [3] | GI50 [4] | GI50 [5] | GI50 [6] | GI50 [7] | GI50 [8] | GI50 [9] | GI50 [10] | GI50 [11] | GI50 [12] | GI50 [13] | GI50 [14] | GI50 [15] | GI50 [16] | GI50 [17] | GI50 [18]
1 | Cc1nc(Nc2ccc([N+](=O)[O-])cc2)sc1C(/C=C/c1ccc(N(C)C)cc1)=N/NC(=O)c1ccccc1 | > 100 µM (inactive) | 29.6 | 22.6 µM (inactive) | 40 µM (inactive) | 39.1 µM (inactive) | 36.4 µM (inactive) | 36.6 µM (inactive) | 29.1 µM (inactive) | 41.9 µM (inactive) | 47.8 µM (inactive) | 31 µM (inactive) | 76 µM (inactive) | > 100 µM (inactive) | 43 µM (inactive) | 56 µM (inactive) | 62.2 µM (inactive) | 41.7 µM (inactive) | 82.2 µM (inactive)
2 | Nc1nc(Cl)cc(NCCCCCCCCNc2cc(Cl)nc(N)n2)n1 | 8.81 µM (inactive) | 8.59 | 1.46 µM (inactive) | 27.8 µM (inactive) | 12.3 µM (inactive) | 14.7 µM (inactive) | 3.82 µM (inactive) | 1.86 µM (inactive) | – | 1.22 µM (inactive) | 1.13 µM (inactive) | 4.29 µM (inactive) | 11.7 µM (inactive) | 36.8 µM (inactive) | 1.48 µM (inactive) | > 100 µM (inactive) | 3.61 µM (inactive) | 2.91 µM (inactive)
3 | COc1cc(C=O)c(-c2cc3c(cc2C=O)OCO3)c(OC)c1OC | 76.9 µM (inactive) | 73.3 | 94.8 µM (inactive) | 108 µM (inactive) | 79.6 µM (inactive) | 59.3 µM (inactive) | 85.7 µM (inactive) | 78 µM (inactive) | 96.2 µM (inactive) | 63.1 µM (inactive) | 41.8 µM (inactive) | – | 117 µM (inactive) | 101 µM (inactive) | 70 µM (inactive) | 202 µM (inactive) | 93.1 µM (inactive) | 123 µM (inactive)
4 | CCCCCCCCOCC(O)COC (stereo unspecified) | > 100 µM (inactive) | > 100 | > 100 µM (inactive) | > 100 µM (inactive) | > 100 µM (inactive) | – | > 100 µM (inactive) | > 100 µM (inactive) | > 100 µM (inactive) | > 100 µM (inactive) | – | > 100 µM (inactive) | > 100 µM (inactive) | > 100 µM (inactive) | > 100 µM (inactive) | > 100 µM (inactive) | > 100 µM (inactive) | 69.7 µM (inactive)
5 | Cc1c(Cl)cccc1N1C(=O)C(Cl)=C(Cl)C1=O | > 51.8 µM (inactive) | > 76.9 | – | > 100 µM (inactive) | > 100 µM (inactive) | > 100 µM (inactive) | > 100 µM (inactive) | > 75.7 µM (inactive) | 17.1 µM (inactive) | > 100 µM (inactive) | 13.5 µM (inactive) | > 100 µM (inactive) | > 100 µM (inactive) | > 100 µM (inactive) | > 100 µM (inactive) | > 100 µM (inactive) | 34.2 µM (inactive) | > 100 µM (inactive)
6 | COc1cc(C)c(CC/C(C)=C/Cc2cc(O)ccc2O)c(C)c1C [PANICEIN A HYDROQUINONE] | > 25 µM (inactive) | > 25 | > 25 µM (inactive) | – | > 25 µM (inactive) | > 25 µM (inactive) | – | > 25 µM (inactive) | > 25 µM (inactive) | > 25 µM (inactive) | > 25 µM (inactive) | > 25 µM (inactive) | > 25 µM (inactive) | > 25 µM (inactive) | > 25 µM (inactive) | > 25 µM (inactive) | > 25 µM (inactive) | –
7 | O=C(/C(=C/c1ccc(Cl)cc1)c1ccccc1)c1ccccc1 | – | 15.4 | 19.9 µM (inactive) | 25.9 µM (inactive) | 18 µM (inactive) | 16.9 µM (inactive) | 15.4 µM (inactive) | 15.9 µM (inactive) | 17.8 µM (inactive) | 17.5 µM (inactive) | 14.2 µM (inactive) | 18 µM (inactive) | 20.3 µM (inactive) | 18.2 µM (inactive) | 18.8 µM (inactive) | – | 19.9 µM (inactive) | 13.6 µM (inactive)
8 | C[C@@H]1C[C@@H]([C@H](O)CC2CC(=O)NC(=O)C2)C(=O)[C@@H](C)C1 [CYCLOHEXIMIDE] | – | 0.0433 | 0.0485 µM (active) | 0.0596 µM (active) | 0.0718 µM (active) | 0.0202 µM (active) | 0.0374 µM (active) | 0.0187 µM (active) | < 0.0176 µM (active) | 0.0516 µM (active) | 0.0395 µM (active) | 0.0366 µM (active) | 0.044 µM (active) | 0.0438 µM (active) | 0.142 µM (active) | 0.0984 µM (active) | 0.0416 µM (active) | 0.0912 µM (active)
9 | CCNC(=O)COc1ccc(Cl)c(C)c1 | > 100 µM (inactive) | > 100 | > 100 µM (inactive) | > 100 µM (inactive) | > 100 µM (inactive) | > 100 µM (inactive) | > 100 µM (inactive) | > 100 µM (inactive) | > 100 µM (inactive) | > 100 µM (inactive) | > 100 µM (inactive) | > 100 µM (inactive) | – | > 100 µM (inactive) | > 100 µM (inactive) | > 100 µM (inactive) | > 100 µM (inactive) | > 100 µM (inactive)
10 | CCC1(C(=O)OC)CCc2c(OC)ccc(OC)c2C1=O (stereo unspecified) | > 100 µM (inactive) | > 100 | > 100 µM (inactive) | > 100 µM (inactive) | > 100 µM (inactive) | > 100 µM (inactive) | > 100 µM (inactive) | > 100 µM (inactive) | > 100 µM (inactive) | > 100 µM (inactive) | > 100 µM (inactive) | > 100 µM (inactive) | > 100 µM (inactive) | > 100 µM (inactive) | > 100 µM (inactive) | > 100 µM (inactive) | – | > 100 µM (inactive)
11 | Cn1ncc2ccc3[nH]c4ccccc4c(=O)c3c21 | 23.4 µM (inactive) | 22.9 | 27.9 µM (inactive) | 26.5 µM (inactive) | 35 µM (inactive) | 38.3 µM (inactive) | 18.7 µM (inactive) | 30 µM (inactive) | 28.9 µM (inactive) | 20.6 µM (inactive) | 17.5 µM (inactive) | 23.9 µM (inactive) | 28.1 µM (inactive) | 28.4 µM (inactive) | 34.8 µM (inactive) | 38.3 µM (inactive) | 29.9 µM (inactive) | 31 µM (inactive)
12 | CC(CCCOC(c1ccccc1)(c1ccccc1)c1ccccc1)OC(=O)Nc1ccccc1 (stereo unspecified) | 13.5 µM (inactive) | 14.4 | 11.6 µM (inactive) | 14.8 µM (inactive) | 13.1 µM (inactive) | 14 µM (inactive) | 12.7 µM (inactive) | 13.2 µM (inactive) | 4.55 µM (inactive) | 9.84 µM (inactive) | 11.7 µM (inactive) | 12.4 µM (inactive) | 14 µM (inactive) | 12.8 µM (inactive) | 12.7 µM (inactive) | – | 18.6 µM (inactive) | 15.3 µM (inactive)
13 | COc1ccc2c(c1)C(=O)C1CC(=O)CCC21 (stereo unspecified) | > 100 µM (inactive) | > 100 | > 100 µM (inactive) | > 100 µM (inactive) | > 100 µM (inactive) | > 100 µM (inactive) | > 100 µM (inactive) | > 100 µM (inactive) | > 100 µM (inactive) | > 100 µM (inactive) | > 100 µM (inactive) | > 100 µM (inactive) | > 100 µM (inactive) | > 100 µM (inactive) | > 100 µM (inactive) | > 100 µM (inactive) | > 100 µM (inactive) | > 100 µM (inactive)
14 | COc1ccc(/C(C#N)=C(/N)SCc2ccccc2Cl)cc1 | – | – | 14.3 µM (inactive) | 14.8 µM (inactive) | 17.5 µM (inactive) | > 10 µM (inactive) | 15.2 µM (inactive) | 14.4 µM (inactive) | 19.1 µM (inactive) | 16.8 µM (inactive) | 14 µM (inactive) | – | > 10 µM (inactive) | 16.4 µM (inactive) | 17.1 µM (inactive) | > 10 µM (inactive) | 25.2 µM (inactive) | 16.7 µM (inactive)
15 | N#CC1CC2(C1)OCCS2 (stereo unspecified) | > 100 µM (inactive) | > 100 | > 100 µM (inactive) | > 100 µM (inactive) | > 100 µM (inactive) | > 100 µM (inactive) | > 100 µM (inactive) | > 100 µM (inactive) | > 100 µM (inactive) | > 100 µM (inactive) | > 100 µM (inactive) | > 100 µM (inactive) | > 100 µM (inactive) | > 100 µM (inactive) | > 100 µM (inactive) | > 100 µM (inactive) | > 100 µM (inactive) | > 100 µM (inactive)
16 | CC1(c2cccc(N)c2)C2C(=O)NC(=O)C1C(=O)NC2=O (stereo unspecified) | 61.9 µM (inactive) | 36.2 | 19.6 µM (inactive) | 32.2 µM (inactive) | 29.4 µM (inactive) | 23.6 µM (inactive) | 28.1 µM (inactive) | 32.2 µM (inactive) | 18 µM (inactive) | 22.1 µM (inactive) | 19.7 µM (inactive) | 36.7 µM (inactive) | 35.9 µM (inactive) | 35.7 µM (inactive) | 22.4 µM (inactive) | 29.2 µM (inactive) | – | 37.9 µM (inactive)
17 | CC(=O)N1[C@H](C(=O)O)CS[C@H]1c1ccc(F)cc1 | > 100 µM (inactive) | > 100 | > 100 µM (inactive) | > 100 µM (inactive) | > 100 µM (inactive) | – | > 100 µM (inactive) | > 100 µM (inactive) | > 100 µM (inactive) | > 100 µM (inactive) | – | > 100 µM (inactive) | > 100 µM (inactive) | > 100 µM (inactive) | > 100 µM (inactive) | > 100 µM (inactive) | > 100 µM (inactive) | > 100 µM (inactive)
